Measurements reported in patent US12409161B2, “Compound for treating neurodegenerative disorders” (FUDAN UNIVERSITY, priority 2019, dated 2025).

Tests used:
[1] = biological target: T1, mutant ATXN1 protein (His-ATXN1-Q92) (Homo sapiens, UniProt P54253, INS208QQQQQQQQQQQQQQQQQQQQQQQQQQQQQQQQQQQQQQQQQQQQQQQQQQQQQQQQQQQQQQQQQQQQQQQQQQQQQQQQ); assay: HTRF of mutant ATXN1 level in HEK293T cells expressing His-ATXN1-Q92; assay type: cell-based; conditions: 100 nM for 2 days, HTRF anti-His-Tb/MW1-D2
T1 construct: expressed in transfected cells; host or cells: HEK293T (ATCC, CRL-3216)
T1 sequence (P54253 with tags, fused parts or gaps with the stated changes): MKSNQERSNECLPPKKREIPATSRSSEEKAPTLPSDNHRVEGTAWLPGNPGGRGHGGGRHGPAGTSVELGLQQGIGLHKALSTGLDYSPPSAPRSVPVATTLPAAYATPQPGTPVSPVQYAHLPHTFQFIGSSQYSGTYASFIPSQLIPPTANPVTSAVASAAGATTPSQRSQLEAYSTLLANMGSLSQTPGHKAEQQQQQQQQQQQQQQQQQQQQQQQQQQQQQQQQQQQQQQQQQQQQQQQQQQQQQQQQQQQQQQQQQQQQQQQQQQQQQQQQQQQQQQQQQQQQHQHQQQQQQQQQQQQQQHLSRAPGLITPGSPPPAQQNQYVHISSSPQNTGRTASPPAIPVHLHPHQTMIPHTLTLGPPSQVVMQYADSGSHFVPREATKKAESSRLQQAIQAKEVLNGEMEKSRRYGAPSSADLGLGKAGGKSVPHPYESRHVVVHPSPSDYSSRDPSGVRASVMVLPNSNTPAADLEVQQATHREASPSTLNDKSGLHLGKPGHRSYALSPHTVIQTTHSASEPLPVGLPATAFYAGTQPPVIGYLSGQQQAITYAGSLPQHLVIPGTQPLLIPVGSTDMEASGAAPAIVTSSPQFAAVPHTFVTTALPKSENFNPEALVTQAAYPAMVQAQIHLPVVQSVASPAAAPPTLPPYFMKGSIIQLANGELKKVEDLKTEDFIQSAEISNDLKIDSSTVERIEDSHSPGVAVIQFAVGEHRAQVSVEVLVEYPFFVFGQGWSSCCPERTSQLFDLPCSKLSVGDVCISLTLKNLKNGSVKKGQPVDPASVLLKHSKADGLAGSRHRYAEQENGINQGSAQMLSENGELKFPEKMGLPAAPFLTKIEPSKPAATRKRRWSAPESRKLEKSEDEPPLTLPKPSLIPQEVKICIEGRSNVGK

[2] = tested on: mHTT aggregates; assay: mHTT aggregates in cortices of Hdh^Q140/Q7 mice (dot-blot, HTRF 4C9/4C9); assay type: in vivo, mouse; conditions: ip-injection, dot-blot 4C9 and HTRF 4C9/4C9
Procedure: (§1) Experimental method: The compound or control DMSO was diluted with 0.9% NaCl intravenous infusion solution to 0.05 μg/μL. One ip-injection (0.5 mg/kg) was conducted per day. After 14 days of injection, tissue extraction or behavioral experiment were conducted.
(3) mHTT aggregates in the cortices of Hdh^Q140/Q7 mice were detected by dot-blot experiment (antibody: 4C9, bar plot showing the results of two repetitions) and HTRF (antibody pair: 4C9/4C9). Sampling was repeated for each mouse two to three times on average (FIG. 20).

[3] = tested on: mHTT; assay: Western-blot of HTT levels in primary cultured Hdh^Q140/Q7 mouse cortical neurons; assay type: cell-based; conditions: treated 2 days, Western-blots (antibody 2166)
Procedure: (§2) Primary cultured cortical neurons: The brains of Hdh^Q140/Q7 and Hdh^Q7/Q7 newborn mice (P0) were dissected, digested, dissociated, and cultured.
(§3) (1) The primary cultured Hdh^Q140/Q7 and Hdh^Q7/Q7 mouse cortical neuron cells were treated with the compound for 2 days. Then the levels of mHTT and wtHTT were detected by Western-blots (antibody 2166) (FIG. 4 and FIG. 5). […]

[4] = tested on: Q25-GFP; assay: Level of polyQ-GFP fusion protein in HEK293T cells (Incucyte fluorescence counting); assay type: cell-based; conditions: 100 nM compound 1 or 50 nM compound 2 for 2 days
From the text: (§4) The inventors used HEK293T cells exogenously expressing polyQ-GFP fusion proteins (Q72-GFP or Q25-GFP) to detect compounds that can control the level of proteins containing expanded polyglutamine in the cells. The method was as follows:
(§5) (1) PolyQ-GFP cDNA sequence (expressing Met-polyQ-GFP, wherein polyQ was Q72 or Q25) was synthesized de novo and subcloned into pcDNA vector. It was transfected into HEK293T cells (ATCC, CRL-3216) through forward transfection to obtain Q72-GFP expressing cells and Q25-GFP expressing cells, respectively. And the same method was used to obtain cells expressing Q53-GFP, cells expressing Q46-GFP, and cells expressing Q38-GFP.
(§6) (3) The Q72-GFP expressing cells and Q25-GFP expressing cells obtained in step (1) were used. […] Then the level of polyQ-GFP was measured by Incucyte fluorescence counting (FIG. 1).

[5] = tested on: Q72-GFP; assay: as above; assay type: cell-based; conditions: 100 nM compound 1 or 50 nM compound 2 for 2 days
From the text: as §4, §5, §6

[6] = biological target: T2, wild-type ATXN3 protein (ATXN3-Q27) (Homo sapiens, UniProt P54252, G306R/INS305QQQQQQQQQQQQQQQQQ/V212M); assay: Western-blot of ATXN3 level in fibroblasts; assay type: cell-based; conditions: 100 nM compound 1 or 50 nM compound 2 for 2 days; Western-blots
T2 construct: endogenous in cells; host or cells: wild-type fibroblasts (Q27), and possibly the normal allele of SCA3 patient fibroblasts
T2 sequence (P54252 with tags, fused parts or gaps isoform P54252-1 with the stated changes): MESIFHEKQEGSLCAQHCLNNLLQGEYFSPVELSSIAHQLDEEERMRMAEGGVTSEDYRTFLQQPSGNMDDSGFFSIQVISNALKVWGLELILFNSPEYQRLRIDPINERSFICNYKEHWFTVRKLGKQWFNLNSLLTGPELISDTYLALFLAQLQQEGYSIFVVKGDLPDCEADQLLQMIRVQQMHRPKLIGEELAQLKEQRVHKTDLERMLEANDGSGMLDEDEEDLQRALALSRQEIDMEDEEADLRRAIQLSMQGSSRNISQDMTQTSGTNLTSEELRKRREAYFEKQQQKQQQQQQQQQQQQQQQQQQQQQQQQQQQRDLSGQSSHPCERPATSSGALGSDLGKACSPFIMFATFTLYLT
Procedure: (§7) Some primary patient fibroblasts and wild-type cells are from HD patients (Q47, Q55) of the Mongolian Huntington's disease family and healthy controls (WT, Q19). SCA3 cell line was from patient (Q74). The HD Q68 fibroblast cell line was from Coriell Cell Repositories (Camden, N.J., USA). Immortalized fibroblasts and induced stem cells (iPSCs) are prepared from primary fibroblasts. HEK293T cells were from ATCC.
(§8) Then the levels of mutant ATXN3 protein (ATXN3-Q74, SEQ ID NO: 3) and wild-type ATXN3 protein (ATXN3-Q27, SEQ ID NO: 4) were determined by Western-blots (FIG. 22). […] Therefore, the compound can be used to treat SCA3.

[7] = tested on: mHTT; assay: Intraperitoneal injection: mHTT and wtHTT levels in cortices and striata of HD mice (Western-blots); assay type: in vivo, mouse; conditions: Hdh^Q140/Q7 mice, ip 0.5 mg/kg per day, 14 days
Procedure: as §1
(1) 13 Hdh^Q140/Q7 mice (5 months old) were randomized into 2 groups.
One ip-injection was conducted per day. After 14 days of injection, the protein was extracted and the levels of mHTT and wtHTT in the cortices of HD mice were detected by Western-blots (FIG. 18).
(2) A total of 13 mice Hdh^Q140/Q7 mice (10 months old) were used, 6-7 mice in each group. According to the above method, the mouse brain striatum neuronal protein was extracted and the levels of mHTT and wtHTT were detected by Western-blots (FIG. 19).

[8] = biological target: T3, mutant ATXN3 protein (ATXN3-Q74) (Homo sapiens, UniProt P54252, G306R/INS305QQQQQQQQQQQQQQQQQQQQQQQQQQQQQQQQQQQQQQQQQQQQQQQQQQQQQQQQQQQQQQQQ/V212M); assay: Western-blot of ATXN3 level in SCA3 patient fibroblasts (Q74); assay type: cell-based; conditions: 100 nM compound 1 or 50 nM compound 2 for 2 days, Western-blots
T3 construct: endogenous in cells; host or cells: SCA3 patient fibroblasts (Q74)
T3 sequence (P54252 with tags, fused parts or gaps isoform P54252-1 with the stated changes): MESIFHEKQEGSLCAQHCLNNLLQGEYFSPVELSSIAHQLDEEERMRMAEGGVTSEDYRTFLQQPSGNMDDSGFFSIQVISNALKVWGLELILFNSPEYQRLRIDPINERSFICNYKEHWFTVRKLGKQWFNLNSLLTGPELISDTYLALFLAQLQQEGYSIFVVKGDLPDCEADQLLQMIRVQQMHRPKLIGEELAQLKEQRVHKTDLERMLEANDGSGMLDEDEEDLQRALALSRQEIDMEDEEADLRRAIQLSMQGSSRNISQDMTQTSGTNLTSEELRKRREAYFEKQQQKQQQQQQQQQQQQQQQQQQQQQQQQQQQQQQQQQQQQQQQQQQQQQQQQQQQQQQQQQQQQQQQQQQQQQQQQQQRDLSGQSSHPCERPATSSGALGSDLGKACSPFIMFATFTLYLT
Procedure: as §7, §8

[9] = tested on: Q25-GFP; conditions: MST; 20 mM HEPES, pH 7.4, 150 mM NaCl; protein 500 nM
[10] = tested on: mHTT; assay: Intracerebroventricular injection: mHTT and wtHTT levels in cortices of HD mice (Western-blots); assay type: in vivo, mouse; conditions: Hdh^Q140/Q7 mice; icv 2 μL of 25 μM per day, 10 days; Western-blots (antibody 2166)
Procedure: Mice expressing wild-type HTT gene (Hdh^Q7/Q7) were from the Marian Difiglia laboratory of Massachusetts General Hospital, Harvard University.
Experimental animals: Hdh^Q140/Q7 mice (3 months old), 4 in each group.
Each test includes three repetitions for each sample, and the mean values was calculated (FIG. 17).

[11] = tested on: mHTT; assay: HTRF of mHTT in HD patient immortalized fibroblasts; conditions: at different doses (FIG. 10)
Procedure: Homogeneous time-resolved fluorescence (HTRF) analysis: the cell or tissue lysate was diluted with the original lysis buffer PBS+1% (v/v) Triton X-100+1×cOmplete™ protease inhibitor to lyse the sample, then HTRF assay buffer (50 mM NaH2PO4, 400 mM NaF, 0.1% BSA, 0.05% (v/v) Tween-20, 1% (v/v) Triton X-100, pH 7.4) was used to dilute the specified antibody pair for detection. In HTRF buffer, the donor antibody concentration was 0.023 ng/μL and the acceptor antibody concentration was 1.4 ng/μL.

[12] = In vivo compound detection in brain tissues of ip-injected mice (LC-MS/MS); conditions: mouse, 2 hours after ip-injection (0.5 mg/kg), read-out: level of compound reached the brain tissue
Procedure: as §1
In vivo compound detection in brain tissues of ip-injected mice: 2 hours after ip-injection of DMSO or compound in mice, the brain was dissected, weighed, and the compound in the brain tissue was extracted, analyzed with UPLC-MS (Acquity Ultra Performance Liquid Chromatography System, Acquity UPLC BEH C18 (1.7 μm, 2.1×50 mm) column and Xevo TQ-S mass spectrometer, Waters Corporation, Milford, MA, USA) for LC-MS/MS analysis. […] The compound of the present invention can be delivered to the brain of mice through the BBB smoothly, which potentially facilitates oral administration of the compound.

[13] = tested on: HD patient iPSC-derived neurons (Q47); assay: Neuronal apoptosis of HD patient iPSC-derived neurons after BDNF removal (TUBB3 immunostaining, caspase-3 activity); assay type: cell-based, human; conditions: 100 nM compound 1 or 50 nM compound 2 for 1 day, then BDNF removal
Procedure: Immunofluorescence: cells were washed, fixed, permeabilized and blocked, then incubated with primary antibody overnight at 4° C., then washed three times with blocking buffer, and incubated with secondary antibody for 1 hour at room temperature, stained with DAPI, and mounted. Images were taken by Zeiss Axio Vert A1 confocal microscope. TUBB3 or co-localization was analyzed using ImageJ.
Then the cells were stressed (by BDNF removal).
Neuronal specific tubulin marker TUBB3 […]. The TUBB3 signal covered area was normalized to the cell nuclei counts, and the data was normalized to the wild type controls to analyze neuronal apoptosis (FIG. 12).
NucView 488 (Biotium, 30029) was used to detect active caspase-3. After removing BDNF, Incucyte (Essen Bioscience, IncuCyte FLR) was used to capture images every 3 hours in the incubator, which were analyze with Incucyte 2011A software. Three batches were tested and the results were consistent (FIG. 13).

[14] = biological target: T4, normal ATXN3 protein (MBP-ATXN3-Q28) (Homo sapiens, UniProt P54252, INS305QQQQQQQQQQQQQQQQQQ); assay: MST detection of affinity to ATXN3; assay type: binding; conditions: method in 2.2
T4 construct: His8; made in house; host or cells: Escherichia coli Rosetta(DE3)pLysS
Procedure: (1) His8 tag and TEV protease cleavage site is added in pMal-C2x plasmid (from New England Biolabs) to prepare prokaryotic expression vector pMBP. The ATXN3 gene (GenBank: NM_001127696.2) is edited to control the length of the expanded polyglutamine, the gene is amplified and cloned into the prepared pMBP to obtain the pMBP-ATXN3-Q28 and pMBP-ATXN3-Q68 plasmids with polyQ repeated 28 and 68 times, respectively.
(2) The expression plasmids pMBP-ATXN3-Q28 and pMBP-ATXN3-Q68 were introduced into Escherichia coli Rosetta(DE3)pLsyS for expression. Preliminary purification was conducted with HisTrap HP column (GE Healthcare, 17524701). The product was concentrated by ultrafiltration and then further purified with Superose 6 Increase 10/300 GL size exclusion column (GE Healthcare).
(3) As verified by SDS-PAGE, the purity of the prepared human MBP-ATXN3-Q28 and MBP-ATXN3-Q68 exceeds 98%.

[15] = biological target: T5, wtHTT (Mus musculus, UniProt P42859); assay: Western-blot of HTT levels in primary cultured Hdh^Q7/Q7 mouse cortical neurons; assay type: cell-based; set-up: endogenous in cells; host or cells: primary cortical neurons of newborn Hdh Q140/Q7 or Hdh Q7/Q7 mice; conditions: treated 2 days, Western-blots (antibody 2166)
Procedure: as §2, §3

[16] = biological target: T5, wtHTT; conditions: Hdh^Q140/Q7 mouse cortical neurons, treated 2 days, Western-blots (antibody 2166)
Procedure: as §2
(1) The primary cultured Hdh^Q140/Q7 and Hdh^Q7/Q7 mouse cortical neuron cells were treated with the compound for 2 days.

[17] = biological target: T6, mHTT (Homo sapiens, UniProt P42858, INS38QQQQQQQQQQQQQQQQQQQQQQQQQQ); assay: HTRF of mHTT in HD patient iPSC-derived neurons (Q47); assay type: cell-based
T6 construct: endogenous in cells; host or cells: HD patient iPSC-derived neurons (Q47)
T6 sequence (P42858 with tags, fused parts or gaps, stated change not applied): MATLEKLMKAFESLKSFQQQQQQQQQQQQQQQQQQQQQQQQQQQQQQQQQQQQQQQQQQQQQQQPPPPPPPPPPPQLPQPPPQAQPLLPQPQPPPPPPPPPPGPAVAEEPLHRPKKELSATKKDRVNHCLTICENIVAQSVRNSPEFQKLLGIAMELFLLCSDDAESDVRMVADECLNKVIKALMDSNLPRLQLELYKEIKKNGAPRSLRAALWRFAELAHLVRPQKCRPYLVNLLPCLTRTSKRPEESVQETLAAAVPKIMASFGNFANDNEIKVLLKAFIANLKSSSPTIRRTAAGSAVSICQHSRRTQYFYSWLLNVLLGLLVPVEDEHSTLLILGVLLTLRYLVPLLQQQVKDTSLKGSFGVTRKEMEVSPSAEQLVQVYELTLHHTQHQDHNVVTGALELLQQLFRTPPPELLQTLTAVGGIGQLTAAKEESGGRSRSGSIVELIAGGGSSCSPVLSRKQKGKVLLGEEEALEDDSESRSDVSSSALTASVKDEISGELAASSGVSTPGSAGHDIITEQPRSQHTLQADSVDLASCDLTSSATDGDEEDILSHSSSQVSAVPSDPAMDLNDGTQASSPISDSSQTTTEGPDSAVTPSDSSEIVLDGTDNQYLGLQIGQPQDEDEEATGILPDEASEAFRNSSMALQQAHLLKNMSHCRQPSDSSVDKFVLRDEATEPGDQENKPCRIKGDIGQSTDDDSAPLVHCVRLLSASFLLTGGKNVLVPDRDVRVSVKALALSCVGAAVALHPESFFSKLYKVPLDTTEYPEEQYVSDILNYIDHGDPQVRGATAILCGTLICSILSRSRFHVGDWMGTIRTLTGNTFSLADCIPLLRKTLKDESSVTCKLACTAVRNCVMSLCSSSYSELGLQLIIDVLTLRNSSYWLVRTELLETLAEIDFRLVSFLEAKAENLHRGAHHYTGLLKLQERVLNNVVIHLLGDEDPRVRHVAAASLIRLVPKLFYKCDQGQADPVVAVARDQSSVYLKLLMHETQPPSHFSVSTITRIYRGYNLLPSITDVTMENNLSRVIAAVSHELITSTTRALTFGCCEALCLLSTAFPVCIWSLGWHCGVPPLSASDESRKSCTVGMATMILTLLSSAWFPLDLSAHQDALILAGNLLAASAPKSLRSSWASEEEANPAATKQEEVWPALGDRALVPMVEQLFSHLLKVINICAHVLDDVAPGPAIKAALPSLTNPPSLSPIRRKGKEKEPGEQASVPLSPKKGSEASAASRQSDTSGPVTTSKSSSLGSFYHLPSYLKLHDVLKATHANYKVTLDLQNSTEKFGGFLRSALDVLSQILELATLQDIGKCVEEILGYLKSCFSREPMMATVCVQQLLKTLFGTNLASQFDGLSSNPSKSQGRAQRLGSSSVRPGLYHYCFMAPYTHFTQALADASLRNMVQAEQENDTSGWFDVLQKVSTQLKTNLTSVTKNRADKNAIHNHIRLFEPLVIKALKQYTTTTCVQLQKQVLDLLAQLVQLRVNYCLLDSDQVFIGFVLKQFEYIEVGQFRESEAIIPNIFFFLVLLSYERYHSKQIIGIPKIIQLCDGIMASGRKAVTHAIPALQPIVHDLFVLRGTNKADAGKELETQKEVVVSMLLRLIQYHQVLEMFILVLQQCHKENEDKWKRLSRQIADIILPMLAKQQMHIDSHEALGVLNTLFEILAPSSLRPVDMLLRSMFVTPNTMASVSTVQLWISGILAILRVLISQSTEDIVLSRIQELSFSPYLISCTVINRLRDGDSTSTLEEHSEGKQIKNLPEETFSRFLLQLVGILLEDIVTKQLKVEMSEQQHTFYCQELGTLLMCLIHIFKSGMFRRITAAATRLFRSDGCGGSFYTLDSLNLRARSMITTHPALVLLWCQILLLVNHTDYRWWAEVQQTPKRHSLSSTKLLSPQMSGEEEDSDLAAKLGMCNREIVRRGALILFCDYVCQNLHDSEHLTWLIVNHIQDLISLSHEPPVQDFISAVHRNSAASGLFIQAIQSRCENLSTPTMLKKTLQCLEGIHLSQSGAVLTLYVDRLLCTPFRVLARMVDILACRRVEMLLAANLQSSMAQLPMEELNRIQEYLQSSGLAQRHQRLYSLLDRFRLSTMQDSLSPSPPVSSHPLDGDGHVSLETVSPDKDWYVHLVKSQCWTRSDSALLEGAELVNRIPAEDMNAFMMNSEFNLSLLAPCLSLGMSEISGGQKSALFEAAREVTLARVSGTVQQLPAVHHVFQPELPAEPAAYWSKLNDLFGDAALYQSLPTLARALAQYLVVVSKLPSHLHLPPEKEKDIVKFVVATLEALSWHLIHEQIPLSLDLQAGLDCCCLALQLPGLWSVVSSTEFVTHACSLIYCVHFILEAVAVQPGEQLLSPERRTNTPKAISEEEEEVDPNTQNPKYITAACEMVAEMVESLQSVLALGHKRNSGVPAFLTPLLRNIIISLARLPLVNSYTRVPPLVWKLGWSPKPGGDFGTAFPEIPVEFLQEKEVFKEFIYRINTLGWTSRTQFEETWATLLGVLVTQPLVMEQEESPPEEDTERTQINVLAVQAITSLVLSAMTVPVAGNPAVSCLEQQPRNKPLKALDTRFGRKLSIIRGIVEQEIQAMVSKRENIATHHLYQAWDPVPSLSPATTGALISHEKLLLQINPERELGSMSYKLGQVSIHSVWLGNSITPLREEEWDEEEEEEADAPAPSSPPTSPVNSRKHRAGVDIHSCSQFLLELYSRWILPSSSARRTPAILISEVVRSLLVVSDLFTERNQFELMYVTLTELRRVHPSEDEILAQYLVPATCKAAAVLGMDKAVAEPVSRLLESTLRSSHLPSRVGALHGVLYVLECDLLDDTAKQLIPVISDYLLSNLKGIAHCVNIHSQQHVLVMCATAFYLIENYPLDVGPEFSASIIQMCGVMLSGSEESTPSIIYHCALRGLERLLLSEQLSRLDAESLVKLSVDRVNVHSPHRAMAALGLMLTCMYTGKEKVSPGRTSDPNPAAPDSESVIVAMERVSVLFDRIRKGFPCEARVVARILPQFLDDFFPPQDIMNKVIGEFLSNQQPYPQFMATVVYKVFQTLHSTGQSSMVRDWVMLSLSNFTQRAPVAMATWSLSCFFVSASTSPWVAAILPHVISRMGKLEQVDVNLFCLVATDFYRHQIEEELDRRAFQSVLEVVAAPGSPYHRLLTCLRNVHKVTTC

[18] = biological target: T7, full-length mHTT (flHTT-Q73) (Homo sapiens, UniProt P42858, INS38QQQQQQQQQQQQQQQQQQQQQQQQQQQQQQQQQQQQQQQQQQQQQQQQQQQQ); assay: OI-RD detection of affinity to full-length HTT; assay type: binding
T7 construct: protein A (N, cleaved yes); made in house; host or cells: human embryonic kidney E293 cells
Procedure: (1) The human HTT gene (GenBank: NM_002111.8) with (CAG)23 or (CAG)73 was synthesized de novo by Genewiz Inc. The human HTT gene was cloned into the modified pCAG vector (from Addgene) with N-terminal protein A tag.
The protein is purified with IgG monoclonal antibody-agarose (Smart-lifesciences, SA030010), digested with TEV protease to remove the protein A tag, and further purified with Mono Q and Superose 6 (5/150 GL) columns from GE healthcare. Validation is conducted using Coomassie blue staining and Western-blots.

[19] = biological target: T8, human HTT full-length protein (Q128) (Homo sapiens, UniProt P42858); assay: mHTT level in heads of Huntington's disease Drosophilae (HTRF); assay type: in vivo, Drosophila; conditions: food with 10 μM in 400 μL DMSO, 6 days, head protein, HTRF 2B7/MW1
T8 construct: transgenic Drosophilae expressing human HTT full-length protein (Q128); tissue Bloomington Drosophila Stock Center (fly lines); host or cells: heads of elav-GAL4 x UAS-fl-HTT-Q128 Drosophila
Procedure: Crosses were set up between virgin female Drosophilae carrying elav-GAL4 driver and the UAS-fl-HTT-Q16 or UAS-fl-HTT-Q128 male Drosophilae to generate a transgenic Drosophilae driven by elav-GAL4 to express human HTT full-length protein (Q16) or (Q128) in the nervous system.
The negative control group was given the corresponding solvent DMSO, and the positive drug groups was given the corresponding positive drug.
Drosophilae were kept in standard food at 25° C. The newly hatched Drosophilae were transferred to vials with food containing the positive drug (10 μM in 400 μL DMSO) or DMSO for control. The corn food was changed every other day.
The mHTT level was measured by HTRF (antibody pair: 2B7/MW1), where each sample included head proteins from five Drosophila (FIG. 14).

SMILES	levels of mutant ATXN1 [1]	level of mHTT in cortical neurons [3]	level of the protein containing the shorter polyglutamine (Q25-GFP) [4]	level of the protein containing expanded polyglutamine (Q72-GFP) [5]	wild-type ATXN3 protein level [6]	mutant ATXN3 protein level [8]	loss of processes and shrinkage of HD neurons after removal of BDNF [13]	further results
O=c1cc(-c2ccccc2)c2c(O)cc(O)cc2o1 [compound 2]	Decreased levels	reduced	did not reduce	effectively reduced	no decrease	decrease	significantly improved	mHTT aggregates in the cortices [2]: No increase in mHTT aggregates; levels of mHTT in the cortices [7]: reduced; levels of mHTT in the striata [7]: reduced; binding affinity with Q25-GFP [9]: no binding affinity; mHTT level in cortices [10]: significantly reduced; level of mHTT in HD patient immortalized fibroblasts [11]: reduced; concentration at 2 h [12]: 9.48 ng/g; binding with normal ATXN3 protein (MBP-ATXN3-Q28) [14]: did not bind
COc1ccc2c(c1)/C(=C/c1cnc[nH]1)C(=O)N2 [compound 4, Su9516]	Decreased levels							
Cc1ccc(C(=O)N(CCCN)[C@@H](c2nc3cc(Cl)ccc3c(=O)n2Cc2ccccc2)C(C)C)cc1 [compound 1, ispinesib]	Decreased levels	reduced	did not reduce	effectively reduced	no decrease	decrease	significantly improved	wtHTT levels in cortical neurons [15]: did not reduce; level of wtHTT in cortical neurons [16]: hardly affected; mHTT levels in HD patient iPSC-derived neurons ([17]; neurons Q47, HTRF 2B7/MW1, method similar to 5.1): Decreased mHTT levels; Kon [18]: 6.43e-05 min/nM; mHTT levels in transgenic Drosophilae [19]: reduced
O=c1cc(-c2ccccc2)c2ccc(O)c(O)c2o1 [compound 6]	Decreased levels							
CC(=O)Nc1cc2ccccc2oc1=O [compound 5]								reduction of mHTT levels in HD patient iPSC-derived neurons ([17]; HTRF 2B7/MW1, same method as for compounds 1 and 2): approximately 26.8%
